Experimental data: patent publication US20220265676A1, “[…] DIBENZO[…] COMPOUNDS FOR USE IN THE THERAPY OF CDKL5 DISORDER” (Healx Limited, priority 2016, published 2022)

Assays:
[1] = system: AMPA receptor subunit GluR2; assay: CDKL5 gene silencing experiment, Western blotting of GluR2 and GluR2 phospho-Ser880 in primary hippocampal cultures; format: cell-based, mouse; conditions: CDKL5-silenced hippocampal neurons
Cdkl5 knockout mice = assay: Rotarod assessment of motor coordination in Cdkl5 knockout mice; format: in vivo
From the text: The generation of Cdkl5 knockout mice and rotarod assessment of motor coordination could be carried out following the method described in Wang, I. -T. J et al. (2012) PNAS 109: 21516-21521, as follows.

[2] = system: AMPA receptor subunit GluR2; assay: CDKL5 gene silencing experiment, immunofluorescence of cell-surface expressed GluR2 in primary hippocampal cultures; format: cell-based, mouse; conditions: 10 uM on alternate days from DIV11 to DIV18 (DIV11-13-15-17); CDKL5-silenced hippocampal neurons
[3] = 10 uM on alternate days from DIV11 to DIV18 (DIV11-13-15-17)
[4] = 10 μM on alternate days from DIV15-18 (DIV15-17)

Row | SMILES | effect of CDKL5 silencing on expression of the AMPA receptor subunit GluR2 (Western blotting) [1, 3] | effect of CDKL5 silencing on phosphorylated GluR2 (phosphorylation at serine-880) (Western blotting) [1, 3] | effect of CDKL5 silencing on expression of the AMPA receptor subunit GluR2 (Western blotting) [1, 4] | effect of CDKL5 silencing on phosphorylated GluR2 (phosphorylation at serine-880) (Western blotting) [1, 4] | time spent on the rotarod before falling (Cdkl5 knockout mice; Cdkl5 knockout mice treated before onset of motor deficits, at 3 weeks of age, relative to untreated mice) | rotarod scores (motor coordination and balance) (Cdkl5 knockout mice; Cdkl5 knockout mice treated from 6 weeks of age for 4 weeks, after onset of motor deficits, versus vehicle) | effect of CDKL5 silencing on expression of GluR2 in terms of number of puncta (immunofluorescence) [2]
1 | CN1c2ccccc2C(NCCCCOCC(=O)O)c2ccc(Cl)cc2S1(=O)=O.Cl (stereo not drawn) [TIOX, 2-(4-((3-chloro-6-methyl-5,5-dioxido-6,11-dihydrodibenzo[c,f][1,2]thiazepin-11-yl)amino)butoxy)acetic acid, HCl salt] | reversed the effect of CDKL5 silencing | reversed the effect of CDKL5 silencing | reversed the effect of CDKL5 silencing | reversed the effect of CDKL5 silencing |  |  | 
2 | CN1c2ccccc2C(NCCCCCCC(=O)O)c2ccc(Cl)cc2S1(=O)=O (stereo not drawn) [Tianeptine, 7-[(3-chloro-6,1′-dihydro-6-methyl-dibenzo[c,f][1,2]thiazepin-11-yl)amino]heptanoic acid S,S-dioxide] |  |  |  |  | increase the time spent on the rotarod before falling | higher than scores for Cdkl5 knockout mice given vehicle but are below WT values | 
3 | CN1c2ccccc2C(NCCCCCCC(=O)O)c2ccc(Cl)cc2S1(=O)=O.O=S(=O)(O)O (stereo not drawn) [tianeptine sulphate] | reversed the effect of CDKL5 silencing | reversed the effect of CDKL5 silencing |  |  |  |  | reversed the effect of CDKL5 silencing
